From patent US20240101576A1, “HETEROCYCLIC INHIBITORS OF EGFR AND/OR HER2, FOR USE IN THE TREATMENT OF CANCER” (Scorpion Therapeutics, Inc., priority 2020, published 2024)

Key:
Assay type in all cases: cell-based
[1] = molecular target: T1, EGFR exon 20 SVD Ins D770_N771 (Ba/F3 cells) (Homo sapiens, UniProt P00533, INS770SVD); assay: Inhibitor activity on EGFR-dependent cell growth (CellTiter-Glo, 72 h), Ba/F3 EGFR exon 20 SVD Ins; conditions: read-out: BaF3 SVD IC50
T1 construct: expressed in transfected cells; host or cells: Ba/F3 (murine pro-B cells), retroviral transduction, puromycin selection, IL3-independent pool
T1 sequence (P00533 with tags, fused parts or gaps INS770SVD): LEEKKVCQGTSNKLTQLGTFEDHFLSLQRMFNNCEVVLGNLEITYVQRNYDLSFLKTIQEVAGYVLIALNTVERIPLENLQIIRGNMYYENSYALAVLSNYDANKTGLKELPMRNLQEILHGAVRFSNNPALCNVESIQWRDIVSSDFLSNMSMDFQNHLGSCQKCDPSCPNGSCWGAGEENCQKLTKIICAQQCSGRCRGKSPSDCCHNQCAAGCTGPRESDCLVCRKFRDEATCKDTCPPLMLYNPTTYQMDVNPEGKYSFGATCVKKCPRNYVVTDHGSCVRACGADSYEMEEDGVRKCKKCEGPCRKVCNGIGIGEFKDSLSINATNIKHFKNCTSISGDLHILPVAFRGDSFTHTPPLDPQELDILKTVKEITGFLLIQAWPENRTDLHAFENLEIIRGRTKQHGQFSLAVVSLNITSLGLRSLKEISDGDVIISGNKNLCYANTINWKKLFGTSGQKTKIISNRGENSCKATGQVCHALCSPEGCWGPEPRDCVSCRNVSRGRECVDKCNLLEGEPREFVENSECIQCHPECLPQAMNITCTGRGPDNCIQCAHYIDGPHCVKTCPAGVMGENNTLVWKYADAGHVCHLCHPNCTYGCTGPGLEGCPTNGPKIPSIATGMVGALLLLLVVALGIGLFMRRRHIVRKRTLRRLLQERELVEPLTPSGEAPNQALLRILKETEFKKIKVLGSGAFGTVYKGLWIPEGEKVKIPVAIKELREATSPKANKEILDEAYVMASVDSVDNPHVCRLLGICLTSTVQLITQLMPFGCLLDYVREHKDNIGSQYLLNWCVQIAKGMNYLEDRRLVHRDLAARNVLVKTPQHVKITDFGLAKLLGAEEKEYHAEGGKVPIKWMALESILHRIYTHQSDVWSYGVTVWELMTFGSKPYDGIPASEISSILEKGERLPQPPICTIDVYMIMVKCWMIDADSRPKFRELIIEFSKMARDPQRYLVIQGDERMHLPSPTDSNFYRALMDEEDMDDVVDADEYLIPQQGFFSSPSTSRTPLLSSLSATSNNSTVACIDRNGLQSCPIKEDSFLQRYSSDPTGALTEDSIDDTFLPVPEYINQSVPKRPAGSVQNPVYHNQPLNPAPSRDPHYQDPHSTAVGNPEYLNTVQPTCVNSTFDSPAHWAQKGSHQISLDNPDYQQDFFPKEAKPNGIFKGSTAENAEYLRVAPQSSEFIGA
How it was run: (§1)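 IC50s derive from a sigmoidal dose–response fit of CellTiter-Glo signal. The signal was normalised between […]-treated cells and cell-free medium. Ba/F3 mutant-EGFR cells, seeded at 400–800/well depending on the line, had 72 h of exposure to a 10-point, 3-fold compound series.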

EGFR WT (Ba/F3 cells) = molecular target: T2, EGFR WT (Ba/F3 cells) (Homo sapiens, UniProt P00533); assay: Inhibitor activity on EGFR-dependent cell growth (CellTiter-Glo, 72 h), Ba/F3 EGFR WT; conditions: read-out: BaF3 WT IC50
T2 construct: expressed in transfected cells; host or cells: Ba/F3 (murine pro-B cells), retroviral transduction, puromycin selection, maintained with EGF
T2 sequence (P00533 25-1210): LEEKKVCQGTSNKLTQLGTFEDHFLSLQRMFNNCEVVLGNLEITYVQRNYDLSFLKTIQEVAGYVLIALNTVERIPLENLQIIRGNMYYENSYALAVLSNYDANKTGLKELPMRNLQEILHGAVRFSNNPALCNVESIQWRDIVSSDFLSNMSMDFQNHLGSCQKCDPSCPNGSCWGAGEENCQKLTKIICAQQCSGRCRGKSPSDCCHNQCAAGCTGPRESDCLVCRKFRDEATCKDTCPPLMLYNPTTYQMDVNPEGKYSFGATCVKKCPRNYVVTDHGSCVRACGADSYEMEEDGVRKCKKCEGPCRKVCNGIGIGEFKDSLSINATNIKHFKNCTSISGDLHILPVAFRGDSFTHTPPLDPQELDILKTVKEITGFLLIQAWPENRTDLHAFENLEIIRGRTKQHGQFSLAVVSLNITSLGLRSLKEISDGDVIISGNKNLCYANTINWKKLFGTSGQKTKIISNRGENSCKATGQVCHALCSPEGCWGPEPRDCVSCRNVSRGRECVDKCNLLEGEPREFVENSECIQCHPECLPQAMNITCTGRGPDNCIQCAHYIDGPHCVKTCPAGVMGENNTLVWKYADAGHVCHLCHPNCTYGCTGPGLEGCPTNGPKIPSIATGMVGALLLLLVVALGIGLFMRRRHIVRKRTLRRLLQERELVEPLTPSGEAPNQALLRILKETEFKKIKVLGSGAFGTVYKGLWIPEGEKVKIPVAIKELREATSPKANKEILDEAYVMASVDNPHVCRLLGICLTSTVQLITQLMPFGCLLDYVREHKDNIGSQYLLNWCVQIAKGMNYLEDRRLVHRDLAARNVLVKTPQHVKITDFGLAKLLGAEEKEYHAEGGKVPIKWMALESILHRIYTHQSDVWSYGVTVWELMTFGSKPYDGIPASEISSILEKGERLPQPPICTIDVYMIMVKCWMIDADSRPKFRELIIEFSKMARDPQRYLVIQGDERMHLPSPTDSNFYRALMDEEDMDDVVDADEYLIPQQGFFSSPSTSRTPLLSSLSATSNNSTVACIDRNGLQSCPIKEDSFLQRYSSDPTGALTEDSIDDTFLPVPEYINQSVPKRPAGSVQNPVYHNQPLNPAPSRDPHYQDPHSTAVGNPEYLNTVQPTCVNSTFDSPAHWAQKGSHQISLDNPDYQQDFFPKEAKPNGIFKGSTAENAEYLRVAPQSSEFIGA
How it was run: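 This growth assay used Ba/F3 cells that depend on wild-type EGFR and are kept in EGF without IL3. Compounds were made up as 10 mM DMSO stocks and diluted 3-fold over 10 points. 120 nL went onto 600 cells/well. After 72 hours, 40 μL CellTiter-Glo was added and luminescence read on EnVision after 30 min.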

[2] = molecular target: T3, EGFR exon 20 ASV Ins V769_D770 (Ba/F3 cells) (Homo sapiens, UniProt P00533, INS769ASV); assay: Inhibitor activity on EGFR-dependent cell growth (CellTiter-Glo, 72 h), Ba/F3 EGFR exon 20 ASV Ins; conditions: read-out: BaF3 ASV IC50
T3 construct: expressed in transfected cells; host or cells: Ba/F3 (murine pro-B cells), retroviral transduction, puromycin selection, IL3-independent pool
T3 sequence (P00533 with tags, fused parts or gaps INS769ASV): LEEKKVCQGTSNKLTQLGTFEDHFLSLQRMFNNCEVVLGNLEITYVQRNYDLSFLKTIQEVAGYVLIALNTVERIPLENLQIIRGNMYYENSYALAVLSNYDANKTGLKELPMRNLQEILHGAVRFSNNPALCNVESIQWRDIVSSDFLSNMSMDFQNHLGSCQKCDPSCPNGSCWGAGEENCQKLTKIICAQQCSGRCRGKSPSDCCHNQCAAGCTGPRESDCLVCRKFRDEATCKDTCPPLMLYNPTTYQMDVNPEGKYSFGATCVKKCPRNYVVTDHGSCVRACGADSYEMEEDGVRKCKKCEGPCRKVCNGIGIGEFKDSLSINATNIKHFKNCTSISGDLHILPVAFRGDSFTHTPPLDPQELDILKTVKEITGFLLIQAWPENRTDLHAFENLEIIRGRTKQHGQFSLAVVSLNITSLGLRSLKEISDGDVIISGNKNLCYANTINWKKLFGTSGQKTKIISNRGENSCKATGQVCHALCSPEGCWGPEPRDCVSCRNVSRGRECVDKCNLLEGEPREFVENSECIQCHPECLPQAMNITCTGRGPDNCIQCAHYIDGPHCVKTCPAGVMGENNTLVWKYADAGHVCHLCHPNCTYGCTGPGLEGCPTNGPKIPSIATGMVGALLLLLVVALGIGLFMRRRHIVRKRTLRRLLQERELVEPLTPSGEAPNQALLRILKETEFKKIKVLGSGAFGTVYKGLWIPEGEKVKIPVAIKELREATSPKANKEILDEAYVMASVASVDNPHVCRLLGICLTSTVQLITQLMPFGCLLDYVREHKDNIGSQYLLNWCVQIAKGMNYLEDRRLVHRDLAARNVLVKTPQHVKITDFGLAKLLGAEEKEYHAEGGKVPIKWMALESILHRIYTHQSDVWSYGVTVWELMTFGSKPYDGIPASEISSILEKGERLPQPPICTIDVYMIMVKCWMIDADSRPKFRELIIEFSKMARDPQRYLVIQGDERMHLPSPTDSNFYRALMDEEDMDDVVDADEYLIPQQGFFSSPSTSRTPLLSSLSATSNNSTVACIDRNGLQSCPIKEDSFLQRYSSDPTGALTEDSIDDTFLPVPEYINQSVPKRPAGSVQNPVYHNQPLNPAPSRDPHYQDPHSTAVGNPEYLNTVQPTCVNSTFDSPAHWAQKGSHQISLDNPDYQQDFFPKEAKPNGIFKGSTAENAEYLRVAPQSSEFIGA
How it was run: as §1

[3] = molecular target: T4, EGFR exon 20 NPG Ins D770_N771 (Ba/F3 cells) (Homo sapiens, UniProt P00533, INS770NPG); assay: Inhibitor activity on EGFR-dependent cell growth (CellTiter-Glo, 72 h), Ba/F3 EGFR exon 20 NPG Ins; conditions: read-out: BaF3 NPG IC50
T4 construct: expressed in transfected cells; host or cells: Ba/F3 (murine pro-B cells), retroviral transduction, puromycin selection, IL3-independent pool
T4 sequence (P00533 with tags, fused parts or gaps INS770NPG): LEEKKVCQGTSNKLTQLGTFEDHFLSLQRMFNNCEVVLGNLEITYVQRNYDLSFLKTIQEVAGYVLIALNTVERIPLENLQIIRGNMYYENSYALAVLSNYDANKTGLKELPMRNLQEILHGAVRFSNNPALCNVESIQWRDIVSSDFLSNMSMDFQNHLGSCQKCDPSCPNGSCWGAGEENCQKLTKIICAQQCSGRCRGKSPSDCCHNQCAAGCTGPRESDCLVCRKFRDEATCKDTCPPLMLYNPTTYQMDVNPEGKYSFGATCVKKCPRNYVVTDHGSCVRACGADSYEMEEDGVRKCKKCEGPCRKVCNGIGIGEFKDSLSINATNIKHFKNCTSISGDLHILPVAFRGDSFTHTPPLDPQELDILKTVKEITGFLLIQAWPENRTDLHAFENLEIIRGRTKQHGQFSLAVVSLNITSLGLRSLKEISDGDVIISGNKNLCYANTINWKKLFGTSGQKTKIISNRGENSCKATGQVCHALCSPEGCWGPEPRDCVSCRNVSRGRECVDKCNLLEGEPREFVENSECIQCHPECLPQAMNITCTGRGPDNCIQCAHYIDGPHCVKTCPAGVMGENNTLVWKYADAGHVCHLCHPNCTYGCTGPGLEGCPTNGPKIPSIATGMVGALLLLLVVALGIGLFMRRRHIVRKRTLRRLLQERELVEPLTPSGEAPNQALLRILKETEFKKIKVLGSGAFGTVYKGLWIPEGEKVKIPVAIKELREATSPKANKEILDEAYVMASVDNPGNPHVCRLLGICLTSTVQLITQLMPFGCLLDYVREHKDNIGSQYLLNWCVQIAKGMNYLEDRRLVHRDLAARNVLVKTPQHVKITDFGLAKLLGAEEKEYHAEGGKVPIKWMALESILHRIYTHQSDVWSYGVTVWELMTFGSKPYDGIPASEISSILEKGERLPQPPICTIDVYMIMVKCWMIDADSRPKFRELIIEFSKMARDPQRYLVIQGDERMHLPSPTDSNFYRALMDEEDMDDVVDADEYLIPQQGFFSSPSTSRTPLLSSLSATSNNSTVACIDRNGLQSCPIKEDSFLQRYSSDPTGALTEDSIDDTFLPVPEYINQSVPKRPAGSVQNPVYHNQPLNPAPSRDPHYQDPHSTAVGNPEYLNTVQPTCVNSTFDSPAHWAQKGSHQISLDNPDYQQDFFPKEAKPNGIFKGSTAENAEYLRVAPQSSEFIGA
Source text: Example A. Inhibitor Activity on EGFR-Dependent Cell Growth
Cell lines are generated by transducing Ba/F3 cells with retroviruses containing vectors with EGFR WT, EGFR L858R, EGFR exon 19del, EGFR L858R/C797S, EGFR exon 20 NPG Ins D770_N771, EGFR exon 20 ASV Ins V769_D770, EGFR exon 20 SVD Ins D770_N771, or EGFR exon 20 FQEA Ins A763_V764 genes and a puromycin selection marker. Transduced cells are selected with puromycin for 7 days and are then be transferred into culture media without Interleukin 3 (IL3). EGFR WT cells are maintained with supplemental EGF. Surviving cells are confirmed to express EGFR by Western blot and maintained as a pool. The IC50 date were included in Table 6 and Table 7.
1.1 Cells are harvested from flask into cell culture medium and the cell number counted.
1.2 Cells are diluted with culture medium to the desired density and 40 μL of cell suspension is added into each well of 384-well cell culture plate and the seeding density is 800 (FQEA, exon 19del), 600 (WT, NPG, L858R/C797S), or 400 (ASV, SVD, L858R) cells/well.
2 Compound Preparation and Treatment
2.1 Test compounds are dissolved to 10 mM in a DMSO stock solution. 45 μL of stock solution is transferred to a 384 polypropylene plate (pp-plate). Perform 3-fold, 10-point dilution via transferring 15 μL compound into 30 μL DMSO using a TECAN (EVO200) liquid handler.
2.2 Spin plates at room temperature at 1,000 RPM for 1 minute.
2.3 Transfer 120 nL of diluted compound from compound source plate into the cell plate.
2.4 After compound treatment for 72 hours, perform CTG detection for compound treatment plates as described in “Detection” section.
3.1 Plates are removed from incubators and equilibrated at room temperature for 15 minutes.
3.2 Thaw the CellTiter Glo reagents and allow to equilibrate to room temperature before the experiment.
3.3 Add 40 μL of CellTiter-Glo reagent into each well (at 1:1 to culture medium). Then place the plates at room temperature for 30 min followed by reading on EnVision.
4.1 Inhibition activity is calculated following the formula below:
% Inhibition=100×(LumHC−LumSample)/(LumHC−LumLC) • where HC is obtained from cells treated with 0.1% DMSO only; and LC is obtained from culture medium only.
4.2 2. Calculate the IC50 by fitting the Curve using Xlfit (v5.3.1.3), equation 201.
Y=Bottom+(Top−Bottom)/(1+10^((Log IC50−X)*HillSlope))

| SMILES | IC50 [1] | IC50 (EGFR WT (Ba/F3 cells)) | IC50 [2] | IC50 [3] |
| --- | --- | --- | --- | --- |
| CNC(=O)N1CC[C@@]2(CNC(=O)c3c2[nH]c(-c2ccncc2F)c3Nc2cccc(Cl)c2OC)C1 [Compound 499, (3R)-3′-[(3-chloro-2-methoxyphenyl)amino]-2′-(3-fluoropyridin-4-yl)-N-methyl-4′-oxo-5′,6′-dihydro-1′H-spiro[pyrrolidine-3,7′-pyrrolo[3,2-c]pyridine]-1-carboxamide] | > 1000 nM | > 1000 nM | > 1000 nM | > 1000 nM |
| C=CC(=O)N1CCC2(CC1)CNC(=O)c1c2[nH]c(-c2ccncc2F)c1Nc1ccc(F)c(Cl)c1 [Compound 587, 3′-[(3-chloro-4-fluorophenyl)amino]-2′-(3-fluoropyridin-4-yl)-1-(prop-2-enoyl)-5′,6′-dihydro-1′H-spiro[piperidine-4,7′-pyrrolo[3,2-c]pyridin]-4′-one] | < 100 nM | 100 to 1000 nM | < 100 nM | < 100 nM |
| C=CC(=O)N1CCC2(CC1)CNC(=O)c1c2[nH]c(-c2ccnc(N)n2)c1Nc1cccc(Cl)c1OC [Compound 556, 2′-(2-aminopyrimidin-4-yl)-3′-[(3-chloro-2-methoxyphenyl)amino]-1-(prop-2-enoyl)-5′,6′-dihydro-1′H-spiro[piperidine-4,7′-pyrrolo[3,2-c]pyridin]-4′-one] | < 100 nM | 100 to 1000 nM | < 100 nM | < 100 nM |
| COc1c(Cl)cccc1Nc1c(-c2ccncc2F)[nH]c2c1C(=O)NCC21CCN(C(=O)/C=C/CN(C)C)CC1 [Compound 522, 3′-[(3-chloro-2-methoxyphenyl)amino]-1-[4-(dimethylamino)but-2-enoyl]-2′-(3-fluoropyridin-4-yl)-5′,6′-dihydro-1′H-spiro[piperidine-4,7′-pyrrolo[3,2-c]pyridin]-4′-one] | 100 to 1000 nM | > 1000 nM | 100 to 1000 nM | 100 to 1000 nM |
| C=CC(=O)N1CCC2(CC1)CNC(=O)c1c2[nH]c(-c2ccncc2F)c1Nc1cccc(F)c1F [Compound 585, 3′-[(2,3-difluorophenyl)amino]-2′-(3-fluoropyridin-4-yl)-1-(prop-2-enoyl)-5′,6′-dihydro-1′H-spiro[piperidine-4,7′-pyrrolo[3,2-c]pyridin]-4′-one] | < 100 nM | 100 to 1000 nM | < 100 nM | < 100 nM |
| COc1c(Cl)cccc1Nc1c(-c2ccnc(-c3ccncn3)n2)[nH]c2c1C(=O)NCC2 [compound 546, 2-{[2,4′-bipyrimidin]-4-yl}-3-[(3-chloro-2-methoxyphenyl)amino]-1H,5H,6H,7H-pyrrolo[3,2-c]pyridin-4-one] | 100 to 1000 nM | > 1000 nM | > 1000 nM | 100 to 1000 nM |
| COc1c(Cl)cccc1Nc1c(-c2ccncc2F)[nH]c2c1C(=O)NCC2C[C@@H]1CO[C@@H](CN(C)C)CO1 (single isomer, unassigned) [Compound 563, (7R*)-3-[(3-chloro-2-methoxyphenyl)amino]-7-{[(2R,5S)-5-[(dimethylamino)methyl]-1,4-dioxan-2-yl]methyl}-2-(3-fluoropyridin-4-yl)-1H,5H,6H,7H-pyrrolo[3,2-c]pyridin-4-one] | 100 to 1000 nM | > 1000 nM | 100 to 1000 nM | 100 to 1000 nM |
| COc1c(Cl)cccc1Nc1c(-c2ccncc2F)[nH]c2c1C(=O)NCC2C[C@H]1CO[C@H](CN(C)C)CO1 (single isomer, unassigned) [Compound 564, (7R*)-3-[(3-chloro-2-methoxyphenyl)amino]-7-{[(2S,5R)-5-[(dimethylamino)methyl]-1,4-dioxan-2-yl]methyl}-2-(3-fluoropyridin-4-yl)-1H,5H,6H,7H-pyrrolo[3,2-c]pyridin-4-one] | 100 to 1000 nM | > 1000 nM | 100 to 1000 nM | 100 to 1000 nM |
| C=CC(=O)N1CCC2(CC1)CNC(=O)c1c2[nH]c(-c2ccncc2F)c1Nc1ccc(Cl)c(Cl)c1 [Compound 590, 3′-[(3,4-dichlorophenyl)amino]-2′-(3-fluoropyridin-4-yl)-1-(prop-2-enoyl)-5′,6′-dihydro-1′H-spiro[piperidine-4,7′-pyrrolo[3,2-c]pyridin]-4′-one] | > 1000 nM | > 1000 nM | > 1000 nM | 100 to 1000 nM |

More lines, now with the values ahead:

| IC50 [1] | IC50 (EGFR WT (Ba/F3 cells)) | IC50 [2] | IC50 [3] | SMILES |
| --- | --- | --- | --- | --- |
| < 100 nM | < 100 nM | < 100 nM | < 100 nM | C=CC(=O)N1CCC2(CC1)CNC(=O)c1c2[nH]c(-c2ccncc2F)c1Nc1ccc(Cl)c(F)c1 [Compound 588, 3′-[(4-chloro-3-fluorophenyl)amino]-2′-(3-fluoropyridin-4-yl)-1-(prop-2-enoyl)-5′,6′-dihydro-1′H-spiro[piperidine-4,7′-pyrrolo[3,2-c]pyridin]-4′-one] |
| < 100 nM | 100 to 1000 nM | < 100 nM | < 100 nM | C=CC(=O)NCC[C@@H]1CNC(=O)c2c1[nH]c(-c1ccnc(C)n1)c2Nc1cccc(Cl)c1OC [compound 654] |
| < 100 nM | < 100 nM | < 100 nM | < 100 nM | C=CC(=O)N1CCC(Oc2nc3c(-c4[nH]c5c(c4Nc4cccc(F)c4OC)C(=O)NCC5)ccnc3cc2OC)CC1 [Compound 554, 3-[(3-fluoro-2-methoxyphenyl)amino]-2-(7-methoxy-6-{[1-(prop-2-enoyl)piperidin-4-yl]oxy}-1,5-naphthyridin-4-yl)-1H,5H,6H,7H-pyrrolo[3,2-c]pyridin-4-one] |
| 100 to 1000 nM | > 1000 nM | 100 to 1000 nM | 100 to 1000 nM | COc1c(Cl)cccc1Nc1c(-c2ccnc(Nc3cnnn3CS(C)(=O)=O)n2)[nH]c2c1C(=O)NCC2 [compound 539, 3-[(3-chloro-2-methoxyphenyl)amino]-2-(2-{[3-(methanesulfonylmethyl)-1,2,3-triazol-4-yl]amino}pyrimidin-4-yl)-1H,5H,6H,7H-pyrrolo[3,2-c]pyridin-4-one] |
| < 100 nM | 100 to 1000 nM | < 100 nM | < 100 nM | CCn1nncc1Nc1nccc(-c2[nH]c3c(c2Nc2cccc(Cl)c2OC)C(=O)NCC3)n1 [compound 538, 3-[(3-chloro-2-methoxyphenyl)amino]-2-{2-[(3-ethyl-1,2,3-triazol-4-yl)amino]pyrimidin-4-yl}-1H,5H,6H,7H-pyrrolo[3,2-c]pyridin-4-one] |
| > 1000 nM | > 1000 nM | > 1000 nM | 100 to 1000 nM | COc1c(Cl)cccc1Nc1c(-c2ccnc(-c3ccnnc3)n2)[nH]c2c1C(=O)NCC2 [compound 542, 3-[(3-chloro-2-methoxyphenyl)amino]-2-[2-(pyridazin-4-yl)pyrimidin-4-yl]-1H,5H,6H,7H-pyrrolo[3,2-c]pyridin-4-one] |
| < 100 nM | 100 to 1000 nM | < 100 nM | < 100 nM | C=CC(=O)N1CCC2(CC1)CNC(=O)c1c2[nH]c(-c2ccncc2F)c1Nc1cccc(Br)c1OC [Compound 561, 3′-[(3-bromo-2-methoxyphenyl)amino]-2′-(3-fluoropyridin-4-yl)-1-(prop-2-enoyl)-5′,6′-dihydro-1′H-spiro[piperidine-4,7′-pyrrolo[3,2-c]pyridin]-4′-one] |
| < 100 nM | 100 to 1000 nM | < 100 nM | < 100 nM | COc1c(Cl)cccc1Nc1c(-c2ccnc(Nc3ccn(CC(C)(C)O)n3)n2)[nH]c2c1C(=O)NCC2 [compound 537, 3-[(3-chloro-2-methoxyphenyl)amino]-2-(2-{[1-(2-hydroxy-2-methylpropyl)pyrazol-3-yl]amino}pyrimidin-4-yl)-1H,5H,6H,7H-pyrrolo[3,2-c]pyridin-4-one] |
